{"source": "paper PMC10838660", "about": "“Artificial intelligence-powered discovery of small molecules inhibiting CTLA-4 in cancer” (BJC reports, 2024)", "key": {"[1]": {"test_system": "interaction of CTLA-4 with CD80 and CD86", "test": "Luciferase reporter assay, CTLA-4 effector Jurkat T cells with Raji antigen-presenting cells", "format": "cell-based, human", "excerpt": "We first evaluated the inhibitory impacts of the compounds against the interaction between CTLA-4 and CD80 using an amplified luminescent proximity homogeneous (Alpha)LISA assay. In this assay, a biotinylated CD80 binds to streptavidin-coated alpha donor beads, while anti-His AlphaLISA acceptor beads capture His-tagged CTLA-4. Upon binding of CD80 to CTLA-4, the donor and acceptor beads draw near, thus excitation of the donor bead leads to the release of singlet oxygen molecules. Consequently, an energy transfer cascade occurs in the acceptor beads, culminating in an intense peak of light emission at 615 nm (Fig. 1a). […] The compounds’ inhibitory activity against CTLA-4 was confirmed through a luciferase reporter assay involving 2 genetically engineered cell lines. First, we developed a CTLA-4 effector cell line using Jurkat T cells expressing human CTLA-4 and a luciferase reporter driven by a native promoter responsive to T-cell receptor (TCR)/CD28 activation. We also managed to establish an adjacent antigen-presenting cell line utilizing Raji cells, which are capable of expressing constitutively active engineered proteins on their surfaces without requiring antigens for effectivity. The Raji cells will also be able to naturally produce endogenous levels of both CD80 as well as CD86 molecules within the target APCs themselves as they transclude from one host to another. […]"}, "[2]": {"test_system": "mouse tumor-infiltrating lymphocytes (TILs)", "test": "IFN-γ production in mouse TILs cocultured with MC38 tumor cells", "format": "cell-based", "procedure": "We examined the ability of these 5 anti-CTLA-4 compounds to stimulate interferon-γ (IFN-γ) production in mouse tumor-infiltrating lymphocytes (TILs). MC38 tumors grown in C57BL/6 mice were extracted to obtain CD45^+ TILs.\n(§1) The ability of compounds to be immunostimulatory was measured by coculturing mouse-derived TILs with MC38 tumors grown in C57BL/6 mice. Tumors were digested using a Tumor Dissociation Kit (Miltenyi Biotec, 130-095-929). After cell isolation, TILs were extracted with a MagniSort Mouse CD45 isolation kit protocol (Invitrogen, 8802-6865-74). TILs were cocultured with MC38 cells for 48 h, and the expression levels of IFN-γ were detected with the AlphaLISA Mouse IFN-γ Detection Kit (PerkinElmer, AL501C). Human DCs and T cells from different patients were prepared and treated as described. For MC38 and human cancer cells treated with compounds, the CellTiter-Glo Luminescent Cell Viability Assay (Promega, G7570) was used to measure the viability."}, "[3]": {"test_system": "human DCs with allogeneic peripheral blood mononuclear cells", "test": "Human DCs cultured with allogeneic PBMCs, flow cytometry", "format": "cell-based", "procedure": "CD80 and CD86 on dendritic cells (DCs) interact with CD28 or CTLA-4 on T cells to regulate T-cell activation.\nas §1\nFlow cytometry was used to measure subcellular populations in tumors. All flow cytometry analyses were performed using either an LSR II flow cytometer (BD Biosciences) or a Northern Lights-3000 flow cytometer (Cytek) and analyzed with FlowJo (Treestar, Inc.). All flow analyses were representative of at least 3 independent experiments using […] CD proteins 4, 8, and 25 (CD4, 116003; CD8, 100707; and CD25, 102011); Foxp3 (126409); and IFN-γ (506506) flow antibodies (Biolegend). Antimouse and antihuman CTLA-4 antibodies were purchased from BioLegend (106313) and Invitrogen (46-1529-42)."}, "MC38 tumors [4]": {"test_system": "MC38 tumors", "test": "MC38 syngeneic tumors in C57BL/6 mice", "format": "in vivo", "procedure": "C57BL/6 mice were purchased from the Charles River Laboratories. In hCTLA-4 mice, the exons encoding for the ECD and transmembrane domains of murine CTLA-4 were replaced with the human versions. All mice were maintained at the Research Animal Facility of Baylor College of Medicine, and all studies were conducted under an animal protocol approved by the Baylor College of Medicine Institutional Animal Care and Use Committee. Mice were challenged with 0.5 million MC38 colorectal cancer cells passaged the previous day at 75% confluence. For the prophylactic model, ipilimumab or small-molecule treatment began 1 day after tumor cell inoculation. For the therapeutic model, ipilimumab or small-molecule treatment was initiated 7 to 17 days after the injection of tumor cells, depending upon when the tumors reached an average size of approximately 100 mm^3. Tumor volumes were calculated with the formula volume = (width^2 × length)/2. Measurements were recorded every 2 to 3 days. For the histologic analyses, the internal organs, including the livers, kidneys, lungs, colons, and salivary glands, were fixed in 10% paraformal-dehyde for at least 24 h, cut from paraffin blocks in […] sections using a Microm HM 315 microtome, and mounted on SuperFrost Plus slides (Roth). Slides were stained with hematoxylin and eosin (Shandon Varistain [24–4] Automatic Stainer). For the histopathologic analysis of the internal organs harvested from mice that had been treated with therapeutic compounds or control antibodies, stained sections were prepared from the formalin-fixed tissue and were assessed in a blinded fashion."}, "MC38 tumors [5]": {"test_system": "MC38 tumors", "test": "MC38 tumors in humanized CTLA-4 (hCTLA-4) mice", "format": "in vivo", "conditions": "for development of MC38 tumors: therapeutic, A9 and D11 25 mg/kg", "excerpt": "(§2) In hCTLA-4 mice, the ECD of the mouse Ctla-4 gene has been replaced with the human counterpart, yet the resulting protein still interacts effectively with mouse CD80 and CD86 [42]. […] Next, we measured the mice’s levels of serum cardiac troponin I type 3 (TNNI3), a marker associated with ipilimumab-induced irAEs. We found elevated serum TNNI3 levels in mice treated with ipilimumab, anti-PD-1, or anti-PD-1 plus D11, but not in mice treated with D11 alone (Fig. 4e). It is unclear why D11 monotherapy appeared to have a protective effect in comparison with anti-PD-1 alone. We also treated 2 human cells lines, HCT116 and MDA-MB231, with D11 and 5-fluorouracil, an antimetabolite drug that is widely used for the treatment of colorectal cancer. […] Thus, it is likely that D11 is weakly toxic to tumor cells and that its antitumor effects are largely due to its regulation of the immune response.\nUsing another cohort of hCTLA-4 mice inoculated with MC38 cells, we treated animals (n = 5 per group) with ipilimumab, anti-PD-1, anti-PD-1 plus D11, D11 alone, or vehicle in the same dosages as used previously. Some animals’ tumors were collected approximately 10 days after the last treatment dose, whereas for the remaining animals, the tumors were allowed to grow (Supplementary Fig. S7). […] Single-cell suspensions from tumors were sorted to obtain CD45^+ immune cells, which were then subjected to single-cell RNA sequencing (scRNAseq) and TCR sequencing. Next, the immune cell populations were compared across the samples (Fig. 5b, c). […] Another interesting observation from the scRNAseq analysis was that the differential expression of membrane-type 1 matrix metalloproteinase, which is known for its role as a key regulator in cell migration in tissues, was associated with D11 treatment. This finding could lead to a possible new mechanism of action, besides macrophage recruitment, to drive the search for anticancer compounds.\n(§3) We next investigated analogs of the 5 anti-CTLA-4 compounds for possible refinement.\nC57BL/6 mice were purchased from the Charles River Laboratories. In hCTLA-4 mice, the exons encoding for the ECD and transmembrane domains of murine CTLA-4 were replaced with the human versions. […] Tumor volumes were calculated with the formula volume = (width^2 × length)/2. Measurements were recorded every 2 to 3 days. […] For the histopathologic analysis of the internal organs harvested from mice that had been treated with therapeutic compounds or control antibodies, stained sections were prepared from the formalin-fixed tissue and were assessed in a blinded fashion."}, "[6]": {"test": "Body weight of treated hCTLA-4 mice", "format": "in vivo", "conditions": "MC38-inoculated hCTLA-4 mice, treated vs control", "excerpt": "as §2, §3"}, "tumor development": {"test_system": "tumor development", "set-up": "method as in PMID 35254416", "conditions": "doses of 2 to 200 mg/kg; cited from earlier work"}, "[7]": {"test_system": "serum cardiac troponin I type 3 (TNNI3)", "test": "Serum TNNI3 in treated mice", "format": "in vivo", "conditions": "marker of ipilimumab-induced irAEs", "excerpt": "as §2"}, "[8]": {"test_system": "CD45+ immune cells from MC38 tumors", "test": "Single-cell RNA and TCR sequencing of CD45+ tumor immune cells", "format": "in vivo, hCTLA-4 mice", "conditions": "scRNAseq of CD45+ tumor cells", "excerpt": "Using another cohort of hCTLA-4 mice inoculated with MC38 cells, we treated animals (n = 5 per group) with ipilimumab, anti-PD-1, anti-PD-1 plus D11, D11 alone, or vehicle in the same dosages as used previously. Some animals’ tumors were collected approximately 10 days after the last treatment dose, whereas for the remaining animals, the tumors were allowed to grow (Supplementary Fig. S7). […] Single-cell suspensions from tumors were sorted to obtain CD45^+ immune cells, which were then subjected to single-cell RNA sequencing (scRNAseq) and TCR sequencing. Next, the immune cell populations were compared across the samples (Fig. 5b, c). […]\nTumors from CTLA-4-humanized MC38 syngeneic mice (n = 3–5 mice) were extracted for single-cell suspension using a gentleMACS Octo Dissociator (Miltenyi Biotec). […] The acquired scRNAseq reads from the 10X Genomics platform were aligned to a reference genome (mm10) using Cell Ranger (V.7.1, 10X Genomics) default parameters. The reads and cells were further filtered with Seurat (V.4.0.3) in R (V.4.1.0). […] The clonality of the TCR repertoire was calculated as a 1-Pielou index value using the formula 1+ ∑(i=1 to n) (pi*ln(pi))/ln(n), where pi is the frequency of clone i for a sample of n unique clones; this metric was normalized to the number of unique clones and ranges from 0 to 1. […]"}, "[9]": {"conditions": "prophylactic setting, 25 mg/kg i.p."}, "[10]": {"conditions": "start at approximately 100 mm^3"}}}
{"molecule": "C/C(=N/OCc1ccccc1)c1nc(-c2ccccc2)[nH]c1C", "note": "[A9]", "values": [{"measurement": "promoter-mediated luminescence (blockade of CTLA-4 with CD80 and CD86)", "setting": "[1]", "result": "resulted in promoter-mediated luminescence"}, {"measurement": "INF-γ stimulation ex vivo (MC38)", "setting": "[2]; Table 3 summary, Mouse CTLA-4/CD80", "result": "Y"}, {"measurement": "Tconv (%)", "setting": "[3]; 10 μM, 6 days", "result": 43.1, "unit": "%"}, {"measurement": "Treg (%)", "setting": "[3]; 10 μM, 6 days", "result": 12.4, "unit": "%"}, {"measurement": "Tconv (%)", "setting": "[3]; 50 μM, 6 days", "result": 49.6, "unit": "%"}, {"measurement": "Treg (%)", "setting": "[3]; 50 μM, 6 days", "result": 20.9, "unit": "%"}, {"measurement": "Tconv: Treg decrease (human cells)", "setting": "[3]; Table 3 summary, Human CTLA-4/CD80", "result": "Y"}, {"measurement": "numbers of tumor-infiltrating Treg cells", "setting": "MC38 tumors [4]; 25 mg/kg i.p.", "result": "reduced"}, {"measurement": "MC38 models", "setting": "MC38 tumors [4]; Table 3 summary, Mouse or human CTLA-4/mouse CD80", "result": "Y"}, {"measurement": "tumor growth after rechallenge with 200,000 MC38 cells", "setting": "MC38 tumors [4]; mice that completely rejected tumors, vs control group", "result": "slower"}, {"measurement": "animal survival", "setting": "MC38 tumors [4]; [9]", "result": "prolonged animal survival"}, {"measurement": "complete tumor rejection / complete response", "setting": "MC38 tumors [4]; [9]", "result": "Four of 10"}, {"measurement": "tumor growth", "setting": "MC38 tumors [4]; prophylactic setting, 4 200-μg doses (25 mg/kg) i.p. every other day, start 1 day after inoculation", "result": "drastically inhibited tumor growth"}, {"measurement": "tumor growth", "setting": "MC38 tumors [4]; therapeutic setting, start at tumor volume approximately 100 mm^3", "result": "significantly reduced tumor growth"}, {"measurement": "tumor-inhibition activity in hCTLA-4 mice compared with non-humanized C57BL/6 mice", "setting": "MC38 tumors [5]; mouse, in vivo", "result": "superior tumor-inhibition activity"}, {"measurement": "development of MC38 tumors", "setting": "MC38 tumors [5]; [10]", "result": "substantially inhibited"}, {"measurement": "body weight", "setting": "[6]", "result": "no significant weight loss"}]}
{"molecule": "Cc1c(Nc2nccc3cc(CN4CC[C@@H](O)C4)cnc23)cccc1-c1cccc(-c2nc3cc(CN4CC[C@@H](C(=O)O)C4)cc(C#N)c3o2)c1C", "note": "[INCB086550]", "values": [{"measurement": "tumor development", "setting": "tumor development", "result": "inhibited tumor development"}]}
{"molecule": "ipilimumab: an anti-CTLA-4 antibody, first immune checkpoint blockade therapy to receive FDA approval [reference compound]", "values": [{"measurement": "promoter-mediated luminescence (blockade of CTLA-4 with CD80 and CD86)", "setting": "[1]", "result": "resulted in promoter-mediated luminescence"}, {"measurement": "IFN-γ production", "setting": "[2]; 3-μg/ml doses", "result": "substantially stimulated"}, {"measurement": "Tconv (%)", "setting": "[3]; 5 μg/ml, 6 days", "result": 42.7, "unit": "%"}, {"measurement": "Tconv/Treg ratio", "setting": "[3]; 5 μg/ml, 6 days", "result": 3.44}, {"measurement": "Treg (%)", "setting": "[3]; 5 μg/ml, 6 days", "result": 12.4, "unit": "%"}, {"measurement": "tumor inhibition / therapeutic efficacy", "setting": "MC38 tumors [5]; second cohort (Fig. 5a), start at approximately 100 mm^3", "result": "inhibited tumors"}, {"measurement": "development of MC38 tumors", "setting": "MC38 tumors [5]; [10]", "result": "inhibited tumors"}, {"measurement": "serum TNNI3 levels", "setting": "[7]", "result": "elevated"}, {"measurement": "tumor-infiltrating macrophages", "setting": "[8]", "result": "only moderately affected"}]}
